Source: the supplement of paper PMC10307832

How the values were obtained:
Assay in all cases: relative viability (nuclei count vs DMSO), 5 days (fraction); higher = more cells survive
RU-SKI 43 + Trametinib = compound: CC[C@@H](C)CNCC(=O)N1CCC2=C([C@@H]1COC3=CC=CC(=C3)C)C=CS2 [RU-SKI 43] + CC(=O)Nc1cccc(-n2c(=O)n(C3CC3)c(=O)c3c(Nc4ccc(I)cc4F)n(C)c(=O)c(C)c32)c1 [Trametinib] (partner 0.02 µM)
How it was run: (§1)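 Lung cancer cell lines in 1536-well plates were dosed by pin tool the day after seeding, either with one drug alone or with a fixed anchor-drug dose plus five library-drug doses (not always all listed) in √10 steps. After 5 days, cells were fixed and their nuclei stained in one step (final 0.05% Triton X-100, 1% formaldehyde, 1 ug/ml Hoechst), then counted on 4× images. Relative viability is the nuclei count in treated wells divided by that in vehicle wells. Values are medians of duplicate plates.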

RU-SKI 43 + OSI-027 = compound: CC[C@@H](C)CNCC(=O)N1CCC2=C([C@@H]1COC3=CC=CC(=C3)C)C=CS2 [RU-SKI 43] + COc1cccc2cc(-c3nc([C@H]4CC[C@H](C(=O)O)CC4)n4ncnc(N)c34)[nH]c12 [OSI-027] (partner 0.5 µM)
How it was run: as §1

MK-8033 + Linsitinib = compound: Cn1cc(-c2cnc3ccc4ccc(CS(=O)(=O)NCc5ccccn5)cc4c(=O)c3c2)cn1 [MK-8033] + C[C@]1(O)C[C@@H](c2nc(-c3ccc4ccc(-c5ccccc5)nc4c3)c3c(N)nccn32)C1 [Linsitinib] (partner 1 µM)
How it was run: as §1

MK-8033 + Tozasertib = compound: Cn1cc(-c2cnc3ccc4ccc(CS(=O)(=O)NCc5ccccn5)cc4c(=O)c3c2)cn1 [MK-8033] + Cc1cc(Nc2cc(N3CCN(C)CC3)nc(Sc3ccc(NC(=O)C4CC4)cc3)n2)n[nH]1 [Tozasertib] (partner 0.1 µM)
How it was run: as §1

| Cell Line | relative viability (RU-SKI 43 + Trametinib; first compound 0.1 µM) | relative viability (RU-SKI 43 + Trametinib; first compound 0.3162 µM) | relative viability (RU-SKI 43 + Trametinib; first compound 1 µM) | relative viability (RU-SKI 43 + Trametinib; first compound 3.162 µM) | relative viability (RU-SKI 43 + Trametinib; first compound 10 µM) | relative viability (RU-SKI 43 + OSI-027; first compound 0.1 µM) | relative viability (RU-SKI 43 + OSI-027; first compound 0.3162 µM) | relative viability (RU-SKI 43 + OSI-027; first compound 1 µM) | relative viability (RU-SKI 43 + OSI-027; first compound 3.162 µM) | relative viability (RU-SKI 43 + OSI-027; first compound 10 µM) | relative viability (MK-8033 + Linsitinib; first compound 0.02 µM) | relative viability (MK-8033 + Linsitinib; first compound 0.06325 µM) | relative viability (MK-8033 + Linsitinib; first compound 0.2 µM) | relative viability (MK-8033 + Linsitinib; first compound 0.6325 µM) | relative viability (MK-8033 + Linsitinib; first compound 2 µM) | relative viability (MK-8033 + Tozasertib; first compound 0.02 µM) | relative viability (MK-8033 + Tozasertib; first compound 0.06325 µM) | relative viability (MK-8033 + Tozasertib; first compound 0.2 µM) | relative viability (MK-8033 + Tozasertib; first compound 0.6325 µM) | relative viability (MK-8033 + Tozasertib; first compound 2 µM) |
| --- | --- | --- | --- | --- | --- | --- | --- | --- | --- | --- | --- | --- | --- | --- | --- | --- | --- | --- | --- | --- |
| LU99A | 0.561 | 0.65 | 0.595 | 0.553 | 0.489 | 0.298 | 0.282 | 0.314 | 0.309 | 0.317 | 0.541 | 0.517 | 0.537 | 0.479 | 0.478 | 0.268 | 0.262 | 0.281 | 0.268 | 0.269 |
| NCI-H522 | 0.862 | 0.723 | 0.675 | 0.883 | 0.715 | 0.823 | 0.726 | 0.71 | 0.708 | 0.716 | – | – | – | – | – | 0.606 | 0.477 | 0.53 | 0.496 | 0.599 |
| NCI-H1299 | – | – | – | – | – | – | – | – | – | – | 0.997 | 0.997 | 0.958 | 1.05 | 0.988 | – | – | – | – | – |
| NCI-H1563 | – | – | – | – | – | 0.772 | 0.778 | 0.819 | 0.75 | 0.786 | 1.26 | 1.15 | 1.13 | 1.23 | 1.19 | – | – | – | – | – |
| NCI-H1623 | – | – | – | – | – | 0.435 | 0.421 | 0.428 | 0.443 | 0.448 | – | – | – | – | – | 0.396 | 0.358 | 0.428 | 0.43 | 0.498 |
| NCI-H1648 | 0.43 | 0.459 | 0.715 | 0.568 | 0.378 | – | – | 0.255 | 0.251 | 0.221 | – | – | – | – | – | – | 0.404 | 0.405 | – | 0.426 |
| NCI-H1650 | 0.556 | 0.703 | 0.533 | 0.712 | 0.55 | 0.597 | 0.584 | 0.835 | 0.618 | 0.618 | – | – | – | – | – | 0.395 | 0.325 | 0.395 | 0.352 | 0.276 |
| NCI-H1703 | – | – | – | – | – | – | – | – | – | – | 0.552 | 0.762 | 0.556 | 0.89 | 0.446 | – | – | – | – | – |
| NCI-H1792 | 0.36 | 0.53 | 0.486 | 0.327 | 0.362 | 0.682 | 1.05 | 0.969 | 0.939 | 0.707 | 0.468 | 0.528 | 0.527 | 0.454 | 0.523 | – | – | – | – | – |
| NCI-H2170 | 0.975 | 1.39 | 1.04 | 0.908 | 0.946 | 0.709 | 0.745 | 0.761 | 0.809 | 0.667 | – | – | – | – | – | 0.662 | 0.702 | 0.634 | 0.695 | 0.628 |
| NCI-H2342 | 0.764 | – | 0.842 | 0.896 | 0.778 | 0.541 | 0.594 | 0.622 | 0.641 | 0.62 | – | – | – | – | – | 0.571 | 0.475 | 0.485 | 0.377 | 0.53 |
| SW 900 | 0.818 | 0.76 | 1.03 | 1.02 | 0.594 | 0.684 | 0.595 | 0.782 | 0.604 | 0.53 | – | – | – | – | – | 0.583 | 0.645 | 0.51 | 0.615 | 0.341 |
